Assay results as given in ChEMBL document CHEMBL1201862, “PubChem BioAssay data set” (2004).
Active and inactive are the calls of the source.

System: not listed separately
Test: control 3'UTR Renilla luciferase suppression, dose response, counter-screen for Shn3 inhibitor project, cell-based, Clone20-Shn3RL, cherry-picked (AID 624133)
Assay type: functional
Details: not given

Row | Compound | AC50
1 | CN(C)S(=O)(=O)c1ccc(Oc2ccc(S(=O)(=O)N(C)C)cc2)cc1 | 12.1 µM (active)
2 | Cc1ccc(C(=O)Nc2nc(-c3ccccn3)cs2)cc1S(=O)(=O)N1CCOCC1 | 0.976 µM (active)
3 | COC(=O)Oc1ccc(/C=C/C(=O)OC(C)C)cc1OC(=O)OC | 2.56 µM (active)
4 | Cn1c(SCc2cccc(Br)c2)nc2ccccc2c1=O | 3.47 µM (active)
5 | Cc1ccc(S(=O)(=O)CCC(=O)OCC(=O)Nc2cc(S(=O)(=O)N3CCOCC3)ccc2C)cc1 | 1.76 µM (active)
6 | Cc1ccc(S(=O)(=O)N2[C@H](c3cccc(Cl)c3)CC(=O)[C@@H]3CN(S(=O)(=O)c4ccccc4C)[C@H](c4ccc(Cl)cc4)C[C@@H]32)cc1 | 0.62 µM (active)

Target: Glyceraldehyde-3-phosphate dehydrogenase (Homo sapiens, UniProt P04406)
Test: not given
Details: not given

Chain of Glyceraldehyde-3-phosphate dehydrogenase (P04406 whole entry): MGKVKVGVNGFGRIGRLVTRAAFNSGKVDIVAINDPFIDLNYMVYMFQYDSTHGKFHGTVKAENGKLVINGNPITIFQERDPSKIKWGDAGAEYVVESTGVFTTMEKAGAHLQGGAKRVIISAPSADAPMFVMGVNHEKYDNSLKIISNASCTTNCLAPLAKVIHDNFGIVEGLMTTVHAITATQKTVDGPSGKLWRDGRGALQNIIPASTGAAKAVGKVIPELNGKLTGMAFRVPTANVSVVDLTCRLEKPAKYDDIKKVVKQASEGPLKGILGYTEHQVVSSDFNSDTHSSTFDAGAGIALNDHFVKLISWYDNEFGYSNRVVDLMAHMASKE

Row | Compound | IC50
7 | O=C(O)c1cc(S(=O)(=O)Nc2cccc(Cl)c2)ccc1O | > 100 µM (not active)
8 | NS(=O)(=O)c1ccc(NS(=O)(=O)c2ccc(O)c(C(=O)O)c2)cc1 | > 100 µM (not active)
9 | Cc1cccc(N2C(=O)C(Cl)=C(N3CCN(Cc4ccc5c(c4)OCO5)CC3)C2=O)c1 | > 50 µM (inconclusive)
10 | O=C1C(Cl)=C(N2CCN(CCOCCO)CC2)C(=O)N1c1ccc(Cl)nc1 | > 50 µM (inconclusive)
11 | COc1ccc(F)cc1S(=O)(=O)Nc1cnc2ccccc2c1 | > 10 µM (inconclusive)

System: not listed separately
Test: inhibitors of intracellular T. cruzi replication, confirmation, NIH3T3 host cells, beta-gal luminescence (AID 2044);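 further: intracellular parasites grown in NIH/3T3 mouse fibroblasts as host cells; luminescent beta-galactosidase reporter signal from transgenic T. cruzi replicating inside host cells; inhibitors lower the luminescence signal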
Assay type: functional, cell-based
Details: not given

Row | Compound | EC50
12 | O=C(COc1ccc(F)cc1Cl)Nc1nc(-c2ccccn2)cs1 | 1.57 µM (active)
13 | COc1ccc(CCNCc2cc(C)n(-c3ccc(OC)cc3)c2C)cc1 | 1.85 µM (active)

System: Streptococcus
Test: Group A Streptococcus viability loss, dose response, counter-screen for streptokinase expression inhibitor project, luminescence, BacTiterGlo (AID 1915);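 further: potency for reduction of bacterial viability or growth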
Assay type: functional, organism-based
Details: not given

Row | Compound | EC50
14 | O=C(COc1ccc(F)cc1Cl)Nc1nc(-c2ccccn2)cs1 | 3.29 µM (active)
15 | O=C(COc1ccc(F)cc1)Nc1nc(-c2ccccn2)cs1 | 16.1 µM (active)

System: not listed separately
Test: cytotoxicity toward NIH3T3 fibroblasts, dose response, counter-screen, cell-based, ATP luminescence, mouse fibroblasts (AID 2010);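 further: cells exposed to compound for about 90 hours before reading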
Assay type: functional
Details: not given

Row | Compound | EC50
16 | O=C(COc1ccc(F)cc1Cl)Nc1nc(-c2ccccn2)cs1 | 3.74 µM (active)
17 | COc1ccc(CCNCc2cc(C)n(-c3ccc(OC)cc3)c2C)cc1 | > 60 µM (not active)

System: not listed separately
Test: C. albicans growth with fluconazole, confirmation, fluorescence, retest (AID 2467)
Assay type: functional, cell-based
Details: not given

Row | Compound | EC50
18 | O=C(COc1ccc(F)cc1)Nc1nc(-c2ccccn2)cs1 | 2.59 µM (active)

System: not listed separately
Test: growth suppression of beta-catenin-knockout colon cells, dose response, cell-based, HCT116, human colon tumor (AID 1045);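 further: HCT116 colon tumor cells with beta catenin knocked out; cells exposed to compound for 60 hours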
Assay type: functional
Details: not given

Row | Compound | EC50
19 | O=C(CNCCC1=CCCCC1)Nc1ccc(N2CCCCCC2)cc1 | 12.3 µM (active)

System: Streptococcus sp. 'group A'
Test: growth inhibition of control SK(-) GAS strain, dose response, counter-screen for streptokinase expression inhibitor project, luminescence, kanamycin, BacTiterGlo, confirmation (AID 1900)
Assay type: functional, organism-based
Details: not given

Row | Compound | EC50
20 | O=C(COc1ccc(F)cc1Cl)Nc1nc(-c2ccccn2)cs1 | 0.751 µM (active)
21 | O=C(COc1ccc(F)cc1)Nc1nc(-c2ccccn2)cs1 | 7.19 µM (active)

System: not listed separately
Test: Shn3 3'UTR reporter inhibitors, dose response, cell-based, Clone20 osteoblasts, firefly luciferase, cherry-picked (AID 624132);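 further: firefly luciferase luminescence from reporter carrying the Shn3 3'UTR in osteoblasts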
Assay type: functional
Details: not given

Row | Compound | AC50
22 | CN(C)S(=O)(=O)c1ccc(Oc2ccc(S(=O)(=O)N(C)C)cc2)cc1 | 3.04 µM (active)
23 | Cc1ccc(C(=O)Nc2nc(-c3ccccn3)cs2)cc1S(=O)(=O)N1CCOCC1 | 0.838 µM (active)
24 | COC(=O)Oc1ccc(/C=C/C(=O)OC(C)C)cc1OC(=O)OC | 3.29 µM (active)
25 | Cn1c(SCc2cccc(Br)c2)nc2ccccc2c1=O | 7.68 µM (active)
26 | Cc1ccc(S(=O)(=O)CCC(=O)OCC(=O)Nc2cc(S(=O)(=O)N3CCOCC3)ccc2C)cc1 | 17.8 µM (active)
27 | Cc1ccc(S(=O)(=O)N2[C@H](c3cccc(Cl)c3)CC(=O)[C@@H]3CN(S(=O)(=O)c4ccccc4C)[C@H](c4ccc(Cl)cc4)C[C@@H]32)cc1 | 0.289 µM (active)

System: not listed separately
Test: HEp-2 cell cytotoxicity, dose response, cytotoxicity control for RSV inhibitor project, HTS (AID 2410)
Assay type: functional
Details: human respiratory syncytial virus

Row | Compound | CC50
28 | CCOc1cccc2sc(N(CCCN(C)C)C(=O)c3ccc(S(=O)(=O)N(CC)Cc4ccccc4)cc3)nc12 | 27.7 µM (active)

System: not listed separately
Test: growth suppression of PTEN-null colon cells, dose response, cell-based, HCT116 PTEN knockout (AID 1047);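 further: HCT116 colon tumor cells with PTEN knocked out; cells exposed to compound for 60 hours before readout; potency for loss of cell viability measured by luminescence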
Assay type: functional
Details: not given

Row | Compound | EC50
29 | O=C(CNCCC1=CCCCC1)Nc1ccc(N2CCCCCC2)cc1 | 15.3 µM (active)

Target: T1, Heat shock factor protein 1 (Mus musculus, UniProt P38532)
T1 sequence (P38532 whole entry): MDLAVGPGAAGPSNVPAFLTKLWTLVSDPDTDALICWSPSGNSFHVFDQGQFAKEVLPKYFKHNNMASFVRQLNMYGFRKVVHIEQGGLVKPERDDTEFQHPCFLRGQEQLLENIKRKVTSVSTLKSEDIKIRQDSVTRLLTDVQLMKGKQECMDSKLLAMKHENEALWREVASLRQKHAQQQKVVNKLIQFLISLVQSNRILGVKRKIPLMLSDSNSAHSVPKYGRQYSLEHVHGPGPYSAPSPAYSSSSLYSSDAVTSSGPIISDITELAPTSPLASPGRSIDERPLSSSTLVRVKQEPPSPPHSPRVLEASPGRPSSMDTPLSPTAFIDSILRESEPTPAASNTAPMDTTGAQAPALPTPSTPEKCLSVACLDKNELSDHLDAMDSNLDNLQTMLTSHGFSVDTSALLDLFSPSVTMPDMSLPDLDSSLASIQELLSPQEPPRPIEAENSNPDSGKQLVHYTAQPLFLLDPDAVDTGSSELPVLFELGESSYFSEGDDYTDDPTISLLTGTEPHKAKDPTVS
Test: inhibition of MG132-induced HSE-luciferase signal, confirmation, cell-based, NIH3T3, luminescence, dose retest (AID 2382);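 further: NIH3T3 fibroblasts with HSF1-driven luciferase reporter stressed by proteasome inhibitor MG132; luminescence from HSF1-driven luciferase expression after 8 hours of MG132 stress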
Assay type: functional
Details: not given

Row | Compound | EC50
30 | O=C(COc1ccc(F)cc1Cl)Nc1nc(-c2ccccn2)cs1 | 41.4 µM (active)

Target: Large T antigen (Simian virus 40, UniProt P03070);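 further: Confirmatory-stage PubChem screen for compounds that inhibit SV40 T antigen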
Test: not given
Assay type: functional, Betapolyomavirus macacae
Details: not given

Chain of Large T antigen (P03070 whole entry): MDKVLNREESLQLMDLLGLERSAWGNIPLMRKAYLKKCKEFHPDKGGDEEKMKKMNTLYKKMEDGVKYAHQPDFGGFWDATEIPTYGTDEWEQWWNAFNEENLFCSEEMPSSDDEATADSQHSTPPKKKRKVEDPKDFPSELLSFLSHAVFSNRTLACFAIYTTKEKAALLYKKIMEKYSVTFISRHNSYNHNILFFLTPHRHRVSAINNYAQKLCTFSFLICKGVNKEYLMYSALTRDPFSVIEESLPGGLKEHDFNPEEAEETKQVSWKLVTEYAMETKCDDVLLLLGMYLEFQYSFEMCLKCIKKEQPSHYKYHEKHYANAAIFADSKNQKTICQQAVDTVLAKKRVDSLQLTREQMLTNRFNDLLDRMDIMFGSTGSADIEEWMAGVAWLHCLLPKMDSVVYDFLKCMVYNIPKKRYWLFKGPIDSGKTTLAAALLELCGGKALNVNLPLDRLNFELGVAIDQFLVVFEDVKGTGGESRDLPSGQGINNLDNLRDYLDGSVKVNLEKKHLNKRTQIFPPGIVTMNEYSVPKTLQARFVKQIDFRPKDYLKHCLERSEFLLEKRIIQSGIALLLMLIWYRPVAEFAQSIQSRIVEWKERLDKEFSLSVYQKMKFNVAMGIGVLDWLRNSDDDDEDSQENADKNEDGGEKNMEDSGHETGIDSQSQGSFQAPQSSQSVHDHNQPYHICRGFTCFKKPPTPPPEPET

Row | Compound | IC50
31 | O=C(CSC1=NS(=O)(=O)c2ccccc21)Nc1ccccc1 | 12.2 µM (active)

System: not listed separately
Test: NIH-3T3 fibroblast cytotoxicity, dose response, cytotoxicity control, cell-based, fluorescence, Alamar Blue, secondary assay (AID 2327);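 further: NIH-3T3 mouse fibroblasts cultured with fluconazole at 8 µg/mL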
Assay type: functional
Details: not given

Row | Compound | EC50
32 | O=C(COc1ccc(F)cc1)Nc1nc(-c2ccccn2)cs1 | > 150 µM (inactive)

Target: T1, Heat shock factor protein 1
Test: HSF1 potentiators in luciferase reporter cells, confirmation, cell-based, NIH3T3, luminescence, dose retest (AID 435004);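 further: stress induced by proteasome inhibitor MG132 added 30 min after compound; luciferase reporter driven by HSF1 response element in NIH3T3 cells; actives raise luminescence as potentiators of the MG132 stress response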
Assay type: functional
Details: not given

Row | Compound | EC50
33 | Cc1cc(C)c(C(=O)/C=C/c2cccc3ccccc23)c(O)n1 | 6.62 µM (active)
34 | COc1ccc(CCNCc2cc(C)n(-c3ccc(OC)cc3)c2C)cc1 | > 260 µM (inactive)

System: not listed separately
Test: HepG2 cell cytotoxicity, dose response, cytotoxicity control for Shn3 inhibitor project, CellTiter-Glo, cherry-picked (AID 624134)
Assay type: functional, cell-based
Details: not given

Row | Compound | AC50
35 | CN(C)S(=O)(=O)c1ccc(Oc2ccc(S(=O)(=O)N(C)C)cc2)cc1 | 53.5 µM (active)
36 | Cc1ccc(C(=O)Nc2nc(-c3ccccn3)cs2)cc1S(=O)(=O)N1CCOCC1 | > 70 µM (inactive)
37 | Cn1c(SCc2cccc(Br)c2)nc2ccccc2c1=O | 59.8 µM (active)
38 | Cc1ccc(S(=O)(=O)N2[C@H](c3cccc(Cl)c3)CC(=O)[C@@H]3CN(S(=O)(=O)c4ccccc4C)[C@H](c4ccc(Cl)cc4)C[C@@H]32)cc1 | 5.61 µM (active)

Target: T2, Ubiquitin-conjugating enzyme E2 N (Homo sapiens, UniProt P61088);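 further: Dose-response confirmation in a TR-FRET assay detecting UBC13-driven polyubiquitin chain formation, inhibition measured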
T2 sequence (P61088 whole entry): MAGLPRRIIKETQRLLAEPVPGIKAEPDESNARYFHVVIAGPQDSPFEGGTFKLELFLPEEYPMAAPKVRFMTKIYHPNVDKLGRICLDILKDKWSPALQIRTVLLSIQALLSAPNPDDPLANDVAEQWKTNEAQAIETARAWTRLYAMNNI
Test: not given
Assay type: functional
Details: not given

Row | Compound | IC50
39 | CCCCCCCCC(=O)N1CCN(c2cc3c(cc2F)c(=O)c(C(=O)O)cn3CC)CC1 | > 20 µM (inactive)
40 | O=C(CCC(=O)N1CCOc2ccc(Cl)cc21)NCCCN1CCN(c2ccccc2F)CC1 | > 20 µM (inactive)
41 | CCOc1cccc2sc(N(CCCN(C)C)C(=O)c3ccc(S(=O)(=O)N(CC)Cc4ccccc4)cc3)nc12 | > 20 µM (inactive)
42 | CCSc1nc(N2CCCCC2)c2c(c1C#N)CCCC2 | > 20 µM (inactive)
43 | NCCCC[C@@H]1NC(=O)c2cc([N+](=O)[O-])cc(I)c2SC[C@@H](C(N)=O)NC(=O)[C@H](Cc2ccc(O)cc2)NC1=O | > 20 µM (inactive)
44 | O=C(CSC1=NS(=O)(=O)c2ccccc21)Nc1ccccc1 | > 20 µM (inactive)

System: H9c2;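 further: confirmatory concentration-response retest of ultra-high-throughput screening hits for modulation of myocardial damage; cell death induced by hydrogen peroxide oxidative stress; compound pretreatment for 60 min then peroxide exposure for 2 h; potency is for protecting the cells against peroxide damage rather than for killing them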
Test: cells
Assay type: functional, cell-based
Details: Rattus norvegicus, H9c2, Myocardium

Row | Compound | IC50
45 | O=C(COc1ccc(F)cc1Cl)Nc1nc(-c2ccccn2)cs1 | > 79 µM (inactive)
46 | O=C(COc1ccc(F)cc1)Nc1nc(-c2ccccn2)cs1 | 16.1 µM (active)
47 | COC(=O)Oc1ccc(/C=C/C(=O)OC(C)C)cc1OC(=O)OC | > 79 µM (inactive)

Target: Nonstructural protein 1 (Influenza A virus, UniProt Q194T2)
Test: not given
Assay type: functional, Influenza A virus (A/California/07/2009(H1N1))
Details: not given

Chain of Nonstructural protein 1 (Q194T2 whole entry): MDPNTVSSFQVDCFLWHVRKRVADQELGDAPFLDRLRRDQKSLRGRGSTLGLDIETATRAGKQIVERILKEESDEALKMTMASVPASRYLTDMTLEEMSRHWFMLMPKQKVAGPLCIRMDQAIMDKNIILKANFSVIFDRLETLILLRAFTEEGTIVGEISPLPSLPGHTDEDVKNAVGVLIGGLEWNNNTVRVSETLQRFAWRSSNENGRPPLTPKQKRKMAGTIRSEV

Row | Compound | IC50
48 | O=C(CNCCC1=CCCCC1)Nc1ccc(N2CCCCCC2)cc1 | 13.8 µM (active)
49 | Cc1ccc(C(=O)Nc2nc(-c3ccccn3)cs2)cc1S(=O)(=O)N1CCOCC1 | 7.81 µM (active)
50 | COc1ccc(CCNCc2cc(C)n(-c3ccc(OC)cc3)c2C)cc1 | 44.7 µM (active)

System: INS1
Test: beta cell apoptosis inhibitors, cytokine rescue, dose response, luminescence, retest (AID 449756);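 further: cell death triggered by IL-1 beta plus TNF-alpha plus IFN-gamma mixture; protective hits raise ATP signal compared with cytokine alone wells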
Assay type: functional, cell-based
Details: Rattus norvegicus

Row | Compound | AC50
51 | CN(C)S(=O)(=O)c1ccc(Oc2ccc(S(=O)(=O)N(C)C)cc2)cc1 | 6.33 µM (active)
52 | Cc1ccc(C(=O)Nc2nc(-c3ccccn3)cs2)cc1S(=O)(=O)N1CCOCC1 | 1.36 µM (active)

Target: Paired box protein Pax-8 (Homo sapiens, UniProt Q06710)
Test: inhibitors of PAX8-driven TPO luciferase reporter, dose response, RMG-I cells, cherry-pick (AID 687027);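 further: luciferase reporter driven by Pax8 target thyroperoxidase promoter measured by SteadyGlo luminescence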
Assay type: functional, cell-based
Details: not given

Chain of Paired box protein Pax-8 (Q06710 whole entry): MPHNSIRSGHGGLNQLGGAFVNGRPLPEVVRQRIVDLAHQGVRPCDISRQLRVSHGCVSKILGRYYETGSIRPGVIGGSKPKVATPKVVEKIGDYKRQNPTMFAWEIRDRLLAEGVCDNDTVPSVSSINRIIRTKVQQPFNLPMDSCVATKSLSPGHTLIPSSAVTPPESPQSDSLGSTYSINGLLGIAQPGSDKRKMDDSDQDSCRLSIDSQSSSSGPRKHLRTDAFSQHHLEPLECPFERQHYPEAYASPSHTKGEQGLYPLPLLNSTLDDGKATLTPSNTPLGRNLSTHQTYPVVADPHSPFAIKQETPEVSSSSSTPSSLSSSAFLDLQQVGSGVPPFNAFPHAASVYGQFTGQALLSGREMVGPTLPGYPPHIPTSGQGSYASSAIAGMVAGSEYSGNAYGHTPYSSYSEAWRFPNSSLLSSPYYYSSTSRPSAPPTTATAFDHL

Row | Compound | AC50
53 | Cc1cc(C)c(C(=O)/C=C/c2cccc3ccccc23)c(O)n1 | 5.27 µM (active)

Target: T3, Streptokinase A (Streptococcus pyogenes serotype M1, UniProt P10520)
T3 sequence (P10520 whole entry): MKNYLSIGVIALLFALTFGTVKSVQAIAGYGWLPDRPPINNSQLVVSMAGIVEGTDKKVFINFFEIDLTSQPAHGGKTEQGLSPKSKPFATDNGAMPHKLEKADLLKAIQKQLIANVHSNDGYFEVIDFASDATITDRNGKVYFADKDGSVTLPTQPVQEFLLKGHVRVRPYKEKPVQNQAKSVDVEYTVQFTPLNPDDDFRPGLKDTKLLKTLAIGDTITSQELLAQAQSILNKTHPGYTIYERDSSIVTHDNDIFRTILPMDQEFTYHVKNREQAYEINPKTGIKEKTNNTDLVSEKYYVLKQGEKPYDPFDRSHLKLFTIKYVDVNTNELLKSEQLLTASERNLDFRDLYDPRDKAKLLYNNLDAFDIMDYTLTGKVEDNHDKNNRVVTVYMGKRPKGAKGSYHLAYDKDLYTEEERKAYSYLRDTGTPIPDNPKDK
Test: S. pyogenes streptokinase expression inhibitors, potency, dose response, plasminogen activation absorbance, OD405 (AID 1914);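 further: secreted streptokinase activity via plasminogen activation per viability signal from cell pellet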
Assay type: functional, Streptococcus pyogenes M1 GAS
Details: not given

Row | Compound | EC50
54 | O=C(COc1ccc(F)cc1)Nc1nc(-c2ccccn2)cs1 | > 150 µM (not active)
